Source: US10160736B2, “1,3,4-oxadiazole and 1,3,4-thiadiazole derivatives as immunomodulators” (Aurigene Discovery Technologies Limited, priority 2013, dated 2018)

target: T1, Recombinant mouse PD-L1 (Mus musculus, UniProt Q9EP73); test: Rescue of mouse splenocyte proliferation in the presence of recombinant PD-L1/PD-L2 (CFSE proliferation assay); format: cell-based; details: 100 nM compound; anti-CD3/CD28 stimulated mouse splenocytes + PD-L1; 72 h; normalised to stimulated splenocyte proliferation as 100%; read-out: Percent rescue of splenocyte proliferation (@100 nM compound concentration)
T1 construct: Fc (Fc chimera); purchased R&D Systems 1019-B7-100
Method: Rescue of Mouse Splenocyte Proliferation in the Presence of Recombinant PD-L1/PD-L2:
Recombinant mouse PD-L1 (rm-PDL-1, cat no: 1019-B7-100 and R&D Systems) were used as the source of PD-L1.
Mouse splenocytes harvested from 6-8 weeks old C57 BL6 mice; RPMI 1640 (GIBCO, Cat #11875); DMEM with high glucose (GIBCO, Cat # D6429); Fetal Bovine Serum [Hyclone, Cat # SH30071.03]; Penicillin (10000 unit/ml)-Streptomycin (10,000 μg/ml) Liquid (GIBCO, Cat #15140-122); MEM Sodium Pyruvate solution 100 mM (100×), Liquid (GIBCO, Cat #11360); Nonessential amino acid (GIBCO, Cat #11140); L-Glutamine (GIBCO, Cat #25030); Anti-CD3 antibody (eBiosciences—16-0032); Anti-CD28 antibody (eBiosciences—16-0281); ACK lysis buffer (1 mL) (GIBCO, Cat #-A10492); Histopaque (density—1.083 gm/mL) (SIGMA 10831); Trypan blue solution (SIGMA-T8154); 2 mL Norm Ject Luer Lock syringe-(Sigma 2014-12); 40 μM nylon cell strainer (BD FALCON 35230); Hemacytometer (Bright line-SIGMA Z359629); FACS Buffer (PBS/0.1% BSA): Phosphate Buffered Saline (PBS) pH 7.2 (HiMedia TS1006) with 0.1% Bovine Serum Albumin (BSA) (SIGMA A7050) and sodium azide (SIGMA 08591); 5 mM stock solution of CFSE: CFSE stock solution was prepared by diluting lyophilized CFSE with 180 μL of Dimethyl sulfoxide (DMSO C2H6SO, SIGMA-D-5879) and aliquoted in to tubes for further use. Working concentrations were titrated from 10 μM to 1 μM. (eBioscience-650850-85); 0.05% Trypsin and 0.02% EDTA (SIGMA 59417C); 96-well format ELISA plates (Corning CLS3390); BD FACS caliber (E6016); Recombinant mouse B7-H1/PDL1 Fc Chimera, (rm-PD-L1 cat no: 1019-B7-100).
Splenocytes harvested in a 50 mL falcon tube by mashing mouse spleen in a 40 μm cell strainer were further treated with 1 mL ACK lysis buffer for 5 min at room temperature. After washing with 9 mL of RPMI complete media, cells were re-suspended in 3 mL of 1×PBS in a 15 mL tube. 3 mL of Histopaque was added carefully to the bottom of the tube without disturbing overlaying splenocyte suspension. After centrifuging at 800×g for 20 min at room temperature, the opaque layer of splenocytes was collected carefully without disturbing/mixing the layers. Splenocytes were washed twice with cold 1×PBS followed by total cell counting using Trypan Blue exclusion method and used further for cell based assays.
Splenocytes were cultured in RPMI complete media (RPMI+10% fetal bovine serum+1 mM sodium pyruvate+10,000 units/ml penicillin and 10,000 μg/ml streptomycin) and maintained in a CO2 incubator with 5% CO2 at 37° C.
CFSE is a dye that passively diffuses into cells and binds to intracellular proteins. 1×10^6 cells/mL of harvested splenocytes were treated with 5 μM of CFSE in pre-warmed 1×PBS/0.1% BSA solution for 10 min at 37° C. Excess CFSE was quenched using 5 volumes of ice-cold culture media to the cells and incubated on ice for 5 min. CFSE labelled splenocytes were further given three washes with ice cold complete RPMI media. CFSE labelled 1×10^5 splenocytes added to wells containing either MDA-MB231 cells (1×10^5 cells cultured in high glucose DMEM medium) or recombinant […] PDL-1 (100 ng/mL) and test compounds. Splenocytes were stimulated with anti-mouse CD3 and anti-mouse CD28 antibody (1 μg/mL each), and the culture was further incubated for 72 h at 37° C. with 5% CO2. Cells were harvested and washed thrice with ice cold FACS buffer and % proliferation was analyzed by flow cytometry with 488 nm excitation and 521 nm emission filters.
Percent splenocyte proliferation was analyzed using cell quest FACS program and percent rescue of splenocyte proliferation by compound was estimated after deduction of % background proliferation value and normalising to % stimulated splenocyte proliferation (positive control) as 100%.
Stimulated splenocytes: Splenocytes+anti-CD3/CD28 stimulation
Background proliferation: Splenocytes+anti-CD3/CD28+PD-L1
Compound proliferation: Splenocytes+anti-CD3/CD28+PD-L1+Compound […]

T1 sequence (Q9EP73 with tags, fused parts or gaps limits assumed): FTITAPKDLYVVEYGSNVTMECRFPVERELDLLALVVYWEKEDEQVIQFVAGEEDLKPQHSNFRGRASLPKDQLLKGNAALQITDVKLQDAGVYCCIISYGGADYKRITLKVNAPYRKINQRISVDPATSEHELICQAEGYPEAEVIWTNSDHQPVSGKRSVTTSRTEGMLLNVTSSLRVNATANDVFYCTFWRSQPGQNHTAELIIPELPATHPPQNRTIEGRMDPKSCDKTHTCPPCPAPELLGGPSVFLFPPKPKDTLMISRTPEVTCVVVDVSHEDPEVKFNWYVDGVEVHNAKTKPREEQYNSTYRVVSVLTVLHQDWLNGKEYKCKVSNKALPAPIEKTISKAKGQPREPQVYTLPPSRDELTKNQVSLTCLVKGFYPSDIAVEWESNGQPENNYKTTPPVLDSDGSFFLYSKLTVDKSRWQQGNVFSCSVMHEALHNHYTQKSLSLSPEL

Row | activation at 0.1 µM [%] | SMILES
1 | 92 | CC(O)[C@H](N)c1nnc([C@H](CCC(N)=O)NC(=O)N[C@@H](CO)C(=O)O)o1 (stereo partly shown) [Compound 12]
2 | 68 | CC(O)[C@H](NC(=O)N[C@@H](CC(=O)O)c1nnc([C@@H](N)CO)o1)C(=O)O (stereo partly shown) [Compound 18]
3 | 58 | CC(O)[C@H](N)c1nnc([C@H](CC(N)=O)NC(=O)N[C@@H](CO)C(=O)O)o1 (stereo partly shown) [Compound 10]
4 | 53 | NC(=O)C[C@H](NC(=O)N[C@@H](CO)C(=O)O)c1nnc([C@@H](N)CO)o1 [Compound 14]
5 | 74 | CC(O)[C@H](NC(=O)N[C@@H](CC(N)=O)c1nnc([C@@H](N)C(C)O)o1)C(=O)O (stereo partly shown) [Compound 9]
6 | 80.3 | CC(O)[C@H](NC(=O)N[C@@H](CC(N)=O)c1nnc([C@@H](N)CO)o1)C(=O)O (stereo partly shown) [Compound 2]
7 | 53 | NC(=O)CC[C@H](NC(=O)N[C@@H](CO)C(=O)O)c1nnc([C@@H](N)CO)o1 [Compound 17]

The remaining lines, values behind:

Row | SMILES | activation at 0.1 µM [%]
8 | CC(O)[C@H](NC(=O)N[C@@H](C)c1nnc([C@@H](N)CO)o1)C(=O)O (stereo partly shown) [Compound 1] | 61.2
9 | CC(O)[C@H](NC(=O)N[C@@H](CCC(N)=O)c1nnc([C@@H](N)C(C)O)o1)C(=O)O (stereo partly shown) [Compound 13] | 75
10 | CC(O)[C@H](NC(=O)N[C@@H](CC(N)=O)c1nnc([C@@H](N)CO)s1)C(=O)O (stereo partly shown) [Compound 4] | 60
11 | NC(=O)C[C@H](N)c1nnc([C@@H](N)CO)s1 [Compound 3] | 48.4
12 | CC(O)[C@H](NC(=O)N[C@@H](CCC(N)=O)c1nnc([C@@H](N)CO)o1)C(=O)O (stereo partly shown) [Compound 16] | 56
13 | CC(O)[C@H](NC(=O)N[C@@H](CCC(=O)O)c1nnc([C@@H](N)CO)o1)C(=O)O (stereo partly shown) [Compound 15] | 69
